The values below come from patent EP4467640A1, “MICROORGANISM AND METHOD FOR THE IMPROVED PRODUCTION OF CYSTEINE AND/OR DERIVATIVES THEREOF” (Metabolic Explorer, priority 2023, dated 2024).

For series [1], the system named is O-phosphoserine sulfhydrylase from Dethiobacter alkaliphilus (OPSSdal), SEQ ID NO: 106. The experiment in a line: O-phosphoserine sulfhydrylase (OPSS) activity, cysteine formation (Gaitonde method), kinetic parameters of purified enzyme. It is filed as biochemical, Dethiobacter alkaliphilus AHT 1. As for the experimental part: This reaction solution, except the enzymes, were incubated at 30°C for 10 min. After then, 0.5 to 1 µg of purified OPSS was added to the reaction solution, incubated at 30°C. 100 µl of the enzyme reaction solutions were taken after 5 min, 10 min, 15 min and mixed with 50 µl cold 1.5 M TCA to stop the enzymatic reaction. The cysteine concentrations in the enzyme reaction solution were quantified by measuring absorbance at OD560 nm according to Gaitonde method (Gaitonde,M.K. (1967), Biochem. J. 104, 627-633).
Kinetic parameters were determined using Sigmaplot.

Series [2] has as its target O-phosphoserine sulfhydrylase from Mycolicibacterium smegmatis (OPSSmsm), SEQ ID NO: 104 (Mycolicibacterium smegmatis, UniProt A0R1X2). The description is as above. It is filed as biochemical, Mycolicibacterium smegmatis (strain ATCC 700084 / mc(2)155).
Series [3] has as its target O-phosphoserine sulfhydrylase from Geobacter sulfurreducens (OPSSgsu), SEQ ID NO: 2 (Geobacter sulfurreducens, UniProt Q747V7). The series is described as above. The note with it: pH 7.5, 30°C; read-out: Km (Na2S). Type of series: biochemical.
In series [4] the target is O-phosphoserine sulfhydrylase from Rhodothermus marinus (OPSSrma), SEQ ID NO: 4 (Rhodothermus marinus, UniProt D0MJA5). The description is as above. Type of series: biochemical, Rhodothermus marinus (strain ATCC 43812 / DSM 4252 / R-10). Conditions: pH 7.5, 30°C; read-out: Km (Na2S).
Substrate in series [5]: N[C@@H](COP(=O)(O)O)C(=O)O
The experiment in a line: purified protein, by the assay type. The note with it: fixed Na2S 50 mM, O-phosphoserine 0.5-100 mM, 100 mM Hepes pH 7.5, 30°C.

O-phosphoserine sulfhydrylase from Mycolicibacterium smegmatis (OPSSmsm), SEQ ID NO: 104, sequence (A0R1X2 1-323): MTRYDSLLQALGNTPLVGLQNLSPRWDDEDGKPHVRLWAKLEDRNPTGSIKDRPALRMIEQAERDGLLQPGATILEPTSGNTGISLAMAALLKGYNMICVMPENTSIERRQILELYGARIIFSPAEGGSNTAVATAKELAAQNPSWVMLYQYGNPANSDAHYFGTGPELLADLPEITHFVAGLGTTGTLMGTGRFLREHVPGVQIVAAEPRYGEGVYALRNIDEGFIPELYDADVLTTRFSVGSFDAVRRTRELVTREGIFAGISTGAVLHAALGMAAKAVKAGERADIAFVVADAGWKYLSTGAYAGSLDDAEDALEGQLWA

The kcat is the maximal rate divided by the concentration of active sites. One may read the Km as the concentration of substrate that gives half-maximal velocity. Usually inhibition stands for the share of the control response that was lost under treatment. In the case of `N[C@@H](COP(=O)(O)O)C(=O)O` [OPS, O-phosphoserine], the kcat in series [1] (calculated from the O-phosphoserine saturation curves, Na2S 50 mM, pH 7.5, 30°C) is 19 s⁻¹. The Km in series [1] (read-out: Km (OPS), fixed Na2S 50 mM, O-phosphoserine 0.5-100 mM, 100 mM Hepes pH 7.5, 30°C) was found to be 17 mM. In series [2] (read-out: activity lost (inhibition by O-Phosphoserine)), the inhibition at 20000 µM is 50%.
Regarding Na2S, the Michaelis constant (Km) was 16 mM in series [3]; 1.4 mM in series [2] (pH 7.5, 30°C, read-out: Km (Na2S)); 13 mM in series [4].

B1: O-phosphoserine sulfhydrylase from Rhodothermus marinus (OPSSrma), SEQ ID NO: 4 (Rhodothermus marinus DSM 4252) (protein)
chain: MFAETLQTTTNTRPLSGTELIRAIGHTPLIRLRRVARHLPETVAVYVKAEHLNPGGSVKDRPALRMVLEGLRSGALREGRALIDATSGNTGIAYAMLGAALGFPVTLAMPANASPERKRILKAYGAELILTDPMEGTDGAQRYVRELVQQEPDRYFYPDQYNNDANWRAHYEGTGIEILEQTGGRVTHFVAGLGTTGTFVGVSRRLKAHNPAIRCYALQPDSPLHGLEGLKHLETAIVPGIYDPSLVDEHLSCSTEEAFEMTRRLAREEGLFVGPSSGANVAAALHIAEQLDRGVVVTVLCDTGARYLSEPFWEETP
For B1, in series [5] (other: OPSSrma), the Km was found to be 6 mM and the kcat came out at 47 s⁻¹.

B2: O-phosphoserine sulfhydrylase from Geobacter sulfurreducens (OPSSgsu), SEQ ID NO: 2 (Geobacter sulfurreducens PCA) (protein)
chain: MEHPPFSLAGSIGATPLVELRHLNPNPRVRILAKLEGNNVGGSVKDRPALYMLAKAEESGELVPEKTILEPTSGNTGIALAMLGTVKGYRVKLVMPACVSLERRAVLEAYGAELVLSPHDEATDGAIRLAHRILEEEPDRYYMPNQYANPNNPLAHYETTAPEIFRDTGGAVDFFVAGMGTGGTLMGTSRYFREKKPSVRIVGVEPRLGHKVQGLKNMQEAIVPPIYHPEALDLKLTVHDEPAFDTARELAAREGLFVGMSSGAAVAGAVQVARDAPAGSTIVVLLPDRGDRYLSTVLFRSVCGKCPP
On to B2, for which, in series [5] (other: OPSSgsu), the Km is given as 16 mM and the kcat was found to be 58 s⁻¹.
